Measurements published in patent US10221163B2 (priority 2015, dated 2019).
Like-named read-outs stand apart in the source and are kept apart here.

How the values were obtained:
[1] = tested on: Pseudomonas aeruginosa efflux− (MB9799), IMP-1; assay type: cell-based; settings: concentration restoring susceptibility to imipenem at 2 μg/mL in the presence of a class A, C, D serine β-lactamase inhibitor closely related to relebactam
In short: (§1)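 Steps: add fixed imipenem and/or ceftazidime (usually CLSI breakpoint) and fixed AmpC-directed class A/C inhibitor to microbroth MIC wells; titrate MBL inhibitor; record concentration regaining susceptibility for each PAO1-derived strain; divide efflux+ by efflux− value.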

[2] = tested on: Pseudomonas aeruginosa MB9798 vs MB9799; settings: ratio MITC95 PA_9798/MITC95 PA_9799
In short: as §1

[3] = tested on: Pseudomonas aeruginosa efflux+ (MB9798), IMP-1; assay type: cell-based; settings: concentration restoring susceptibility to imipenem at 2 μg/mL in the presence of a class A, C, D serine β-lactamase inhibitor closely related to relebactam
In short: as §1

VIM-1 = VIM-1 (Pseudomonas aeruginosa (strain ATCC 15692 / DSM 22644 / CIP 104116 / JCM 14847 / LMG 12228 / 1C / PRS 101 / PAO1), UniProt A0A0F7KYQ8); assay: biochemical; settings: CCF2-FA substrate, 30 pM enzyme, 2 hours at 25° C.
In short: (§2)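 Two-hour, 25° C incubation of enzyme with inhibitor and CCF2-FA (7-hydroxycoumarin–cephalosporin–fluorescein). Fluorescence read-out; IC50 via 4-parameter fit.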

NDM-1 = NDM-1 (Klebsiella pneumoniae, UniProt C7C422); assay: biochemical; assay type: biochemical; settings: fluorescence assay, CCF2-FA substrate, 1 pM enzyme, 2 hours at 25° C.; read-out: NDM-1 IC50
In short: as §2

IMP-1 = IMP-1 (Serratia marcescens, UniProt P52699); assay: biochemical; assay type: biochemical; settings: fluorescence assay, CCF2-FA substrate, 2 pM enzyme, 2 hours at 25° C.; read-out: IMP-1 IC50
In short: as §2

[4] = tested on: Klebsiella pneumoniae expressing VIM-1 (IHMA599644); assay type: cell-based; settings: VIM-1 strain IHMA599644, with imipenem 1 μg/ml, 95% inhibition of growth
In short: (§3)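 Colonies grown overnight on blood agar at 35° C were suspended in saline, diluted 1:100 into 1.1×CAMHB and dispensed. Imipenem was added to 1 μg/ml, then test compound. After 22 hours to 24 hours at 35° C, absorbance was recorded.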

[5] = tested on: Serratia marcescens expressing IMP-1 (CL5741); assay type: cell-based; settings: IMP-1 strain CL5741, with imipenem 1 μg/ml, 95% inhibition of growth
In short: as §3

[6] = tested on: Escherichia coli expressing NDM-1 (CLB30005, CLB30016); assay type: cell-based; settings: NDM-1 strain, with imipenem 1 μg/ml, 95% inhibition of growth
In short: as §3

[7] = fluorescence assay, read-out: VIM-1 IC50

NDM-1, sequence (C7C422 whole entry, looked up, species assumed): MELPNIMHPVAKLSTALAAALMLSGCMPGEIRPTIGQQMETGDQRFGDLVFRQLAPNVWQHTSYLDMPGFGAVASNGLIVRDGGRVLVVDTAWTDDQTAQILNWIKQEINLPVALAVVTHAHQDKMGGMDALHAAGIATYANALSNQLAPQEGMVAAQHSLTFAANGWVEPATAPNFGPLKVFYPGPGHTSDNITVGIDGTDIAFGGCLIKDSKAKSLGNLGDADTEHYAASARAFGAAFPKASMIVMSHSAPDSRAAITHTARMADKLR
IMP-1, sequence (P52699 whole entry, looked up, species assumed): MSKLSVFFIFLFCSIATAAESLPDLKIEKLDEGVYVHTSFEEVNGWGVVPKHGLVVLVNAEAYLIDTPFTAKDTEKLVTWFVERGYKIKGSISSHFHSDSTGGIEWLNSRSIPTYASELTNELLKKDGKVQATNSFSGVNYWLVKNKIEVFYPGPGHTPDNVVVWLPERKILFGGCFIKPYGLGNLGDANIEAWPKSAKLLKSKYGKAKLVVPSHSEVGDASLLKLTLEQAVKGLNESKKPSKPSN

SMILES	P. aeruginosa expressing IMP-1, efflux − (MB9799) MITC95 [1] [µM]	Efflux ratio [2]	P. aeruginosa expressing IMP-1, efflux + (MB9798) MITC95 [3] [µM]	IC50 (VIM-1; VIM-1 IC50, fluorescence assay) [nM]	IC50 (NDM-1) [nM]	IC50 (IMP-1) [nM]	Klebsiella pneumoniae MITC95 [4] [µM]	Serratia marcescens MITC95 [5] [µM]	Escherichia coli MITC95 [6] [µM]	IC50 (VIM-1; [7]) [nM]
Nc1ncc(-c2ccc(S(=O)(=O)N[C@H]3CNC[C@H]3N)c(S(N)(=O)=O)c2-c2nn[nH]n2)s1 [Example 325, N1-((3S,4R)-4-aminopyrrolidin-3-yl)-4-(2-aminothiazol-5-yl)-3-(2H-tetrazol-5-yl)benzene-1,2-disulfonamide]	0.7813	2.00	1.563	0.896	0.724	1.22	3.125	1.563	0.7813	–
N[C@@H]1CNC[C@@H]1NS(=O)(=O)c1ccc(-c2cnc3cc[nH]c3c2)c(-c2nn[nH]n2)c1S(N)(=O)=O [Example 326, N1-((3S,4R)-4-aminopyrrolidin-3-yl)-4-(1H-pyrrolo[3,2-b]pyridin-6-yl)-3-(2H-tetrazol-5-yl)benzene-1,2-disulfonamide]	1.563	1.00	1.563	0.115	0.0502	0.65	1.563	1.563	0.7813	–
Nc1nc(-c2cccc(-c3ccc(S(=O)(=O)N[C@H]4CNC[C@H]4N)c(S(N)(=O)=O)c3-c3nn[nH]n3)c2)c[nH]1 [Example 327, 3′-(2-amino-1H-imidazol-4-yl)-N4-((3S,4R)-4-aminopyrrolidin-3-yl)-2-(2H-tetrazol-5-yl)-[1,1′-biphenyl]-3,4-disulfonamide]	0.7813	2.00	1.563	0.649	0.259	1.41	1.563	3.125	3.125	–
N[C@@H]1CNC[C@@H]1NS(=O)(=O)c1ccc(-c2cccn3ccnc23)c(-c2nn[nH]n2)c1S(N)(=O)=O [Example 328, N1-((3S,4R)-4-aminopyrrolidin-3-yl)-4-(imidazo[1,2-a]pyridin-8-yl)-3-(2H-tetrazol-5-yl)benzene-1,2-disulfonamide]	1.563	1.00	1.563	0.165	0.14	0.34	3.125	1.563	0.7813	–
Cc1ccc(-c2ccc(S(=O)(=O)NCCN)c(S(N)(=O)=O)c2-c2nn[nH]n2)c2nc(N)[nH]c12 [Example 329, 4-(2-Amino-7-methyl-1H-benzo[d]imidazol-4-yl)-N1-(2-aminoethyl)-3-(2H-tetrazol-5-yl)benzene-1,2-disulfonamide]	0.7813	2.00	1.563	–	0.0153	0.128	1.563	1.563	1.563	0.043
NCCNS(=O)(=O)c1ccc(-c2cccc3[nH]c([C@H](N)CO)nc23)c(-c2nn[nH]n2)c1S(N)(=O)=O [Example 330, (S)-4-(2-(1-amino-2-hydroxyethyl)-1H-benzo[d]imidazol-4-yl)-N1-(2-aminoethyl)-3-(2H-tetrazol-5-yl)benzene-1,2-disulfonamide]	1.563	1.00	1.563	0.308	0.294	2.76	3.125	1.563	3.125	–
NCCNS(=O)(=O)c1ccc(-c2cccc3[nH]c([C@@H](N)CO)nc23)c(-c2nn[nH]n2)c1S(N)(=O)=O [Example 331, (R)-4-(2-(1-amino-2-hydroxyethyl)-1H-benzo[d]imidazol-4-yl)-N1-(2-aminoethyl)-3-(2H-tetrazol-5-yl)benzene-1,2-disulfonamide]	1.563	1.00	1.563	0.18	0.228	2.28	3.125	3.125	1.563	–
NCCNS(=O)(=O)c1ccc(-c2cccc(C(=O)NC[C@@H](N)CO)c2N)c(-c2nn[nH]n2)c1S(N)(=O)=O [Example 332]	1.563	1.00	1.563	–	0.661	3	3.125	1.563	1.563	0.23
NCCNS(=O)(=O)c1ccc(-c2cccc(C(=O)NC[C@H](N)CO)c2N)c(-c2nn[nH]n2)c1S(N)(=O)=O [Example 333, (S)-2-amino-N-(2-amino-3-hydroxypropyl)-4′-(N-(2-aminoethyl)sulfamoyl)-3′-sulfamoyl-2′-(2H-tetrazol-5-yl)-[1,1′-biphenyl]-3-carboxamide]	1.563	1.00	1.563	–	1.01	3.21	3.125	1.563	1.563	0.472
NCCNC(=O)c1cccc(-c2ccc(S(=O)(=O)NCCN)c(S(N)(=O)=O)c2-c2nn[nH]n2)c1 [Example 334, N-(2-aminoethyl)-4′-(N-(2-aminoethyl)sulfamoyl)-3′-sulfamoyl-2′-(2H -tetrazol-5-yl)-[1,1′-biphenyl]-3-carboxamide]	0.7813	2.00	1.563	–	1.32	4.6	0.7813	0.7813	0.3906	0.247
NCCNS(=O)(=O)c1ccc(-c2cccc3[nH]c([C@H](N)CN)nc23)c(-c2nn[nH]n2)c1S(N)(=O)=O [Example 335, (R)—N1-(2-aminoethyl)-4-(2-(1,2-diaminoethyl)-1H-benzo[d]imidazole-4-yl)-3-(2H-tetrazol-5-yl)benzene-1,2-disulfonamide]	1.563	2.00	3.125	–	0.459	4.78	3.125	3.125	1.563	0.287
NCCNS(=O)(=O)c1ccc(-c2cccc3[nH]c([C@@H](N)CN)nc23)c(-c2nn[nH]n2)c1S(N)(=O)=O [Example 336, (S)—N1-(2-aminoethyl)-4-(2-(1,2-diaminoethyl)-1H-benzo[d]imidazol-4-yl)-3-(2H-tetrazol-5-yl)benzene-1,2-disulfonamide]	1.563	2.00	3.125	–	0.325	2.9	3.125	3.125	1.563	0.233
NCCNS(=O)(=O)c1ccc(-c2cccc3[nH]c(CCN)nc23)c(-c2nn[nH]n2)c1S(N)(=O)=O [Example 337, N1-(2-aminoethyl)-4-(2-(2-aminoethyl)-1H-benzo[d]imidazol-4-yl)-3-(2H-tetrazol-5-yl)benzene-1,2-disulfonamide]	0.3906	2.00	0.7813	–	0.208	2.23	0.7813	0.7813	0.7813	0.2
